Patent US8829016B2, “Triazole compounds as potential anti-inflammatory agents” (King Saud University, priority 2011, dated 2014)

Columns and labels:
[1] = system: carrageenan-induced rat paw edema; test: In vivo carrageenan induced rat paw edema assay; design: species or system rat (male Sprague-Dawley); conditions: compound intravenously in DMSO one hour before carrageenan, vs vehicle control = 0%
Description: (§1) Anti-inflammatory activity was determined by the carrageenan-induced rat paw edema method described by Winter et al., Proc. Soc. Exp. Biol. Med. 1962, 111, 544, using male Sprague-Dawley rats weighing 150 to 200 g (6-8 weeks old). The protocol for the animal experiments performed was approved by the Research Ethics Committee and Animal Care and Use Committee, Govt. of Saudi Arabia. Compounds were administered intravenously in dimethyl sulfoxide solution. Paw edema was induced by intradermal injection of 50 μ. of 1% λ-carrageenan (Sigma, USA) into the subplantar region of the right hind paw, after one hour of compound administration. […] The control group received only the vehicle. Increase in paw volume was compared with that in the control group and percent inhibition was calculated taking the values in the control group as 0% inhibition.
In Vivo Carrageenan Induced Rat Paw Edema Assay
as §1, with “(Winter” for “Winter”, “al.” for “al.,”, “544). Male” for “544, using male”, “old) were used in groups of six animals per group for the experiments. The animals were housed in a room with temperature of 22±2° C. under a 12 h light/dark cycle. They were allowed free access to food and water ad libitum.” for “old).”, “μl” for “μ.”, “X-carrageenan” for “λ-carrageenan”

ovine COX-2 = target: T1, ovine COX-2 (Ovis aries, UniProt P79208); test: In vitro COX inhibition assay, colorimetric COX (ovine) inhibitor screening kit, COX-2; format: biochemical; conditions: for IC50: ovine COX-2, colorimetric kit; for Selectivity index (COX-1/COX-2): ratio of IC50 COX-1 / IC50 COX-2
T1 construct: purchased Cayman Chemicals, USA
T1 sequence (P79208 17-603): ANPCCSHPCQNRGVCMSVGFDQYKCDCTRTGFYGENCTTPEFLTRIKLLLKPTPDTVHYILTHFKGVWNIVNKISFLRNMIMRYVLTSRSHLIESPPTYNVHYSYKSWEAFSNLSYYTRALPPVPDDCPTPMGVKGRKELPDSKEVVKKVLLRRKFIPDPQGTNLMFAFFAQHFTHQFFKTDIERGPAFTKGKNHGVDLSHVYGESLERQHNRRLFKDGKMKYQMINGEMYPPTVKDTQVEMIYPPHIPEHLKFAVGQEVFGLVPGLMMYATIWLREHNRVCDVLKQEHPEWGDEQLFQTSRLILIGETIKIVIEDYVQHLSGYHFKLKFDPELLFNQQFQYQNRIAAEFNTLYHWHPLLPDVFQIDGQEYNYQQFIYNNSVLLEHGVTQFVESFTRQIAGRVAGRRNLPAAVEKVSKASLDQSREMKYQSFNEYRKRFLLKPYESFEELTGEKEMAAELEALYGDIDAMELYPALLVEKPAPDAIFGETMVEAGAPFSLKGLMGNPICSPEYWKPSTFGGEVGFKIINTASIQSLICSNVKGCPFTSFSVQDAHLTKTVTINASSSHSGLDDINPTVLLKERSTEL
Description: (§2) Inhibition of the enzymes was determined with the colorimetric COX (ovine) inhibitor screening assay.
(§3) In Vitro COX Inhibition Assay
(§4) The final compounds were evaluated for their ability to inhibit ovine COX-1 and COX-2 enzymes [50% percent inhibition is expressed in molar concentration […]] […] Inhibition of the enzymes was determined with the colorimetric COX (ovine) inhibitor screening assay kit (Cayman Chemicals, USA) using ELISA reader.

ovine COX-1 = target: T2, ovine COX-1 (Ovis aries, UniProt P05979); test: In vitro COX inhibition assay, colorimetric COX (ovine) inhibitor screening kit, COX-1; format: biochemical; conditions: ovine COX-1, colorimetric kit
T2 construct: purchased Cayman Chemicals, USA
T2 sequence (P05979 25-600): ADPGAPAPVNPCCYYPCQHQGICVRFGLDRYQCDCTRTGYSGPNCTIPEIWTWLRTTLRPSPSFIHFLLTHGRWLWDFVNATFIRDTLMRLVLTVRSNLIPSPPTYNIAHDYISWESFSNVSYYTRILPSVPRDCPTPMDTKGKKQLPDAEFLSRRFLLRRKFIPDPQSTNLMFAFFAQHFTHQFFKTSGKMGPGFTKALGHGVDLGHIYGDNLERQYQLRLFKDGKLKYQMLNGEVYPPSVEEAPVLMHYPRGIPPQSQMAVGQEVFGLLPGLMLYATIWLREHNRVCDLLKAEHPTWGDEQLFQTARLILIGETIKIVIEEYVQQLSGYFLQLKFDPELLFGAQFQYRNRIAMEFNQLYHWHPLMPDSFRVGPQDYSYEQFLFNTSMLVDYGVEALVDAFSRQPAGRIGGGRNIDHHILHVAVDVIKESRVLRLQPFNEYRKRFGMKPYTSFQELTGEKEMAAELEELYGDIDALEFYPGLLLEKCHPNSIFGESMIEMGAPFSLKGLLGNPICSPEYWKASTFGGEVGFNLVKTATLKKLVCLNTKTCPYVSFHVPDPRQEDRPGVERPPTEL
Description: as §2, §3, §4

Row | melting point [°C] | IC50 (ovine COX-2) [nM] | Selectivity index (COX-1/COX-2) (ovine COX-2) | IC50 (ovine COX-1) [nM] | Compound | AI activity % inhibition at 1 hr (carrageenan paw edema) [1] | AI activity % inhibition at 2 hr (carrageenan paw edema) [1] [%]
1 | 151 to 152 |  |  |  | C#CCSC1NN=C(c2ccncc2)N1c1ccccc1 (stereo not drawn) [Compound 3, 4-Phenyl-3-(prop-2-ynylthio)-5-pyridine-4-yl-2,4-dihydro-3H-1,2,4-triazole] |  | 
2 | 96 to 97 |  |  |  | CCCC(C)SC1NN=C(c2ccncc2)N1c1ccccc1 (stereo not drawn) [Compound 4, 3-[(Pent-2-yl)thio]-4-phenyl-5-pyridine-4-yl-2,4-dihydro-3H-1,2,4-triazole] |  | 
3 | 132 to 133 |  |  |  | C=CCCCSC1NN=C(c2ccncc2)N1c1ccccc1 (stereo not drawn) [Compound 5] |  | 
4 | 277 to 278 | 0.8 | 4.38 | 3.5 | OCn1nc(-c2ccncc2)n(-c2ccccc2)c1=S [Compound 7, 2-Hydroxymethyl-4-phenyl-5-pyridine-4-yl-2,4-dihydro-3H-1,2,4-triazole-3-thione] | 25 ± 1.8% | 66 ± 2.6
5 | 173 to 174 | 0.9 | 3.44 | 3.1 | CN(C)Cn1nc(-c2ccncc2)n(-c2ccccc2)c1=S [Compound 8, 2-Dimethylaminomethyl-4-phenyl-5-pyridine-4-yl-2,4-dihydro-3H-1,2,4-triazole-3-thione] | 51 ± 1.5% | 76 ± 2.8
6 | 216 to 217 | 1.1 | 3.46 | 3.8 | CCN(CC)Cn1nc(-c2ccncc2)n(-c2ccccc2)c1=S [Compound 9, 2-Diethylaminomethyl-4-phenyl-5-pyridine-4-yl-2,4-dihydro-3H-1,2,4-triazole-3-thione] | 45 ± 1.1% | 66 ± 1.2

Further lines, the compound ahead of its results:

Row | Compound | melting point [°C] | IC50 (ovine COX-2) [nM] | Selectivity index (COX-1/COX-2) (ovine COX-2) | IC50 (ovine COX-1) [nM] | AI activity % inhibition at 1 hr (carrageenan paw edema) [1] | AI activity % inhibition at 2 hr (carrageenan paw edema) [1] [%]
7 | Cc1ccc(-c2cc(C(F)(F)F)nn2-c2ccc(S(N)(=O)=O)cc2)cc1 [Celecoxib, reference compound] |  |  |  |  | 50 ± 2.1% | 71.5 ± 3.7
8 | C#CCSc1nnc(-c2ccncc2)n1-c1ccccc1 [Compound 3, 4-Phenyl-3-(prop-2-ynylthio)-5-pyridine-4-yl-2,4-dihydro-3H-1,2,4-triazole] |  | 5.3 | 1.42 | 7.5 | 10 ± 5.4% | 12 ± 4.9
9 | CCCC(C)Sc1nnc(-c2ccncc2)n1-c1ccccc1 (stereo not drawn) [Compound 4, 3-[(Pent-2-yl)thio]-4-phenyl-5-pyridine-4-yl-2,4-dihydro-3H-1,2,4-triazole] |  | 1.4 | 2.64 | 3.7 | 36 ± 2.1% | 50 ± 2.5
10 | C=CCCCSc1nnc(-c2ccncc2)n1-c1ccccc1 [Compound 5] |  | 2.6 | 1.69 | 4.4 | 9 ± 1.3% | 38 ± 1.8
11 | CCOC(=O)n1nc(-c2ccncc2)n(-c2ccccc2)c1=S [Compound 6, Ethyl[4-phenyl-5-pyridine-4-yl-3-thioxo-2,4-dihydro-3H-1,2,4-triazole-2-yl]carboxylate] | 231 to 232 | 7.8 | 1.18 | 9.2 | 0.0% | 5 ± 1.8
12 | S=c1n(CN2CCCC2)nc(-c2ccncc2)n1-c1ccccc1 [Compound 10, 4-Phenyl-5-pyridine-4-yl-2-pyrrolidinylmethyl-2,4-dihydro-3H-1,2,4-triazole-3-thione] |  | 0.9 | 4.11 | 3.7 | 62 ± 3.4% | 66 ± 1.5
13 | CN(CCO)Cn1nc(-c2ccncc2)n(-c2ccccc2)c1=S [Compound 11, N-Methyl-N-[(4-phenyl-5-pyridine-4-yl-3-thioxo-2,4-dihydro-3H-1,2,4-triazol-2-y)methyl]-2-aminoethanol] | 173 to 174 | 2.1 | 2.14 | 4.5 | Zero | 16 ± 5.9
14 | S=c1n(CNc2ccc(Br)cc2)nc(-c2ccncc2)n1-c1ccccc1 [Compound 12, 2-[(4-Bromophenylamino)methyl]-4-phenyl-5-pyridine-4-yl-2,4-dihydro-3H-1,2,4-triazole-3-thione] | 208 to 209 | 3.9 | 1.64 | 6.4 | 12.5 ± 1.6% | 29 ± 3.8
15 | S=c1n(CNCc2ccc(Cl)cc2)nc(-c2ccncc2)n1-c1ccccc1 [Compound 13, 2-[(4-Chlorobenzylamino)methyl]-4-phenyl-5-pyridine-4-yl-2,4-dihydro-3H-1,2,4-triazole-3-thione] |  | 6.8 | 1.38 | 8.7 | 16 ± 5.7% | 19 ± 6.3
